Laboratory results: patent US5565480A, “Substituted histidines” (SmithKline Beecham Corporation, priority 1995, dated 1996)

Tested on: pressor response to exogenous angiotensin II
Assay: Inhibition of pressor response to angiotensin II in conscious rats
Assay type: in vivo
Conditions: Rattus norvegicus, iv, change in mean arterial pressure, read-out: IC50, dose of compound needed to produce 50% inhibition of the control response to angiotensin II
Method: Angiotensin II antagonist activity of the compounds of Formula (I) is assessed by in and in vivo methods. In vitro antagonist activity is determined by the ability of the compounds to compete with ^125 I-angiotensin II for binding to vascular angiotensin II receptors and by their ability to antagonize the contractile response to angiotensin II in the isolated rabbit aorta. In vivo activity is evaluated by the efficacy of the compounds to inhibit the pressor response to exogenous angiotensin II in conscious rats and to lower blood pressure in a rat model of renin dependent hypertension.
Rats are prepared with indwelling femoral arterial and venous catheters and a stomach tube (Gellai et al., Kidney Int. 15:419, 1979). Two to three days following surgery the rats are placed in a restrainer and blood pressure is continuously monitored from the arterial catheter with a pressure transducer and recorded on a polygraph. The change in mean arterial pressure in response to intravenous injections of […] angiotensin II is compared at various time points prior to and following the administration of the compounds intravenously or orally at doses of 3 to 300 mg/kg. The dose of compound needed to produce 50% inhibition of the control response to angiotensin II (IC50) is used to estimate the potency of the compounds. […]

## CCCCc1ncc(C[C@H](NC(=O)CCC)C(=O)O)n1Cc1ccccc1Cl [Example 8, 3-[(2-Chlorophenyl)methyl]-2-n-butyl-N-butyrylhistidine]
  ED50: 10 mg/kg
